According to US5101059A, “Amino acid protecting groups” (Research Corporation Technologies, Inc., priority 1989, dated 1992):
Blank lines part the entries; values can stand above or below the compound they belong to.

Legend:
Assay type in all cases: physicochemical
[1] = Base deblocking of substituted urethanes (U-PCA) by various amines; settings: dichloromethane, room temperature
Source text: 1. General Procedure for Studying the Base Deblocking of the Urethanes Fmoc-PCA, BTS-Fmoc-PCA, DT-Fmoc-PCA, and TMS-Fmoc-PCA: A mixture of urethane (0.05 mmol) in a solution prepared from an equal volume of base (2.5 mmol, 50 eq.) and dichloromethane was stirred at room temperature. The course of the reaction was monitored by TLC with an eluant consisting of Skelly B--ether (3:1).

[2] = Base deblocking of R-Fmoc-aniline by various amines; settings: for Time for Complete Deblocking / Time for Complete Scavenging of Dibenzofulvene: room temperature
Procedure: 2. General Procedure for Studying the Base Deblocking of the Urethanes R-Fmoc-aniline (R=TMS, DMPS, DPMS, DT-TMS, TIPS): A solution of urethane (0.05 mmol) in a sample of redistilled base (5 mmol, 100 eq.) was allowed to stand at room temperature. The reaction was monitored periodically by TLC with an eluant consisting of Skelly B--CH2 Cl2 (1:1). No reaction occurred according to the TLC test for urethanes having R=TIPS in the case of any of the bases tested after 24 hours.

[3] = Deblocking of R-Fmoc-aniline by fluoride ion; settings: tetra-n-butylammonium chloride 3.0 eq., KF dihydrate 4.1 eq., acetonitrile, room temperature
Procedure: 3. General Procedure for Studying the Deblocking of Urethanes R-Fmoc-aniline (R=TMS, DMPS, DPMS, TIPS, DT-TMS) by Reaction with Fluoride Ion: To a solution of urethane (0.0513 mmol) in 0.7 mL of acetonitrile was added 45 mg (0.154 mmol, 3.0 eq.) of tetra-n-butyl-ammonium chloride and 20 mg (0.213 mmol, 4.1 eq.) of potassium fluoride dihydrate. The mixture was stirred at room temperature, the reaction being monitored by TLC with an eluant consisting of Skelly B--CH2 Cl2 (1:1).

[4] = Deblocking of R-Fmoc-aniline by trifluoroacetic acid; settings: room temperature
Source text: 1. General Procedure for Studying the stability of R-Fmoc-analine (R=TMS, DMPS, DPMS, DT-TMS, TIPS) in Trifluoroacetic Acid: To a solution of urethane (0.026 mmol) in […].) of trifluoroacetic acid. The mixture was stirred at room temperature and the course of the reaction was monitored by TLC with an eluant consisting of Skelly B--dichloromethane (1:1) to note the time needed for complete deblocking of the urethanes.

[5] = Solubility of TMS-Fmoc and dichloro-Xmoc derivatives versus Fmoc analogs
Procedure: This latter property is particularly important when peptide synthesis is carried out in solution.

[6] = General statements on cleavage by piperidine or fluoride ion
[7] = Base deblocking and stability of 9-xanthenylmethyl and 9,10-dihydro-9-anthracenylmethyl derivatives; settings: room temperature; for time needed to complete the deblocking: DBU 100 eq.; for time needed to complete the deblocking / time for evidence for initiation of the deblocking: DMF; for time for evidence for initiation of the deblocking: piperidine 100 eq.
Procedure: 1. Deblocking of Xmoc-PCA in 1,5,9-Triazabicyclo[4,4,0]dec-5-ene Solution: To a solution of 7.90 mg (0.0216 mmol) of Xmoc-PCA in 0.6 mL of pyridine was added 0.15 g (1.078 mmol 50 eq.) of 1,5,9-triazabicyclo[4,4,0]dec-5-ene (TBD). The mixture was stirred at room temperature and monitored by TLC with an eluant consisting of Skelly B--EtOAc (3:1). Complete deblocking had occurred after 25 minutes.
2. Base Deblocking of 9-Xanthenylmethyl Phenylacetate: a. In Piperdine Solution: To a solution of 13.39 mg of 9-XM-phenylacetate in 1.6 mL of DMF was added 0.4 mL (100 eq.) of piperidine. The mixture was stirred at room temperature. […] In DBU Solution: To a solution of 6.36 mg of 9-XM-phenylacetate in 0.9 mL of DMF was added 0.3 mL of 1,8-diazabicyclo[5,4,0]-undec-7-ene (DBU) (100 eq.). The mixture was stirred at room temperature. […] In TBD Solution: To a solution of 7.91 mg of 9-XM-phenylacetate in 0.3 mL of pyridine was added 100 mg (30 eq.) of 1,5,9-triazabicyclo[4,4,0]dec-5-ene. The mixture was stirred at room temperature.
1. General Procedure for Studying the Stabilities of DHAmoc-PCA, Xmoc-PCA, and DC-Xmoc-PCA in Piperidine Solution To a solution of urethane (0.0294 mmol) in 1.2 mL of DMF was added 0.3 mL (2.94 mmol, 100 eq.) of piperidine. The mixture was stirred at room temperature and monitored by TLC with an eluant consisting of Skelly B--EtOAc (3:1). Evidence for initiation of the deblocking required 2 minutes for DC-Xmoc-PCA, 3.5 hours for Xmoc-PCA, and 7 hours for DHAmoc-PCA.
2. General Procedure for Studying the Deblocking of Xmoc-PCA and DHAmoc-PCA in DBU Solution: To a solution of urethane (0.0324 mmol) in 0.5 mL of DMF was added 0.5 mL (3.24 mmol, 100 eq.) of 1,8-diazabicyclo[5,4,0]undec-7-ene. The mixture was stirred at room temperature and monitored by TLC with the eluant consisting of Skelly B--EtOAc (3:1). The time needed to complete the deblocking was 3.5 hours for Xmoc-PCA, and 6 hours for DHAmoc-PCA.

[8] = Base deblocking of FM-Fmoc-PCA; settings: room temperature
Procedure: A. Base Deblocking of FM-Fmoc-PCA: 1. In Piperidine Solution: To a solution of 24.96 mg of FM-Fmoc-PCA in 0.5 mL of DMF was added 0.5 mL (100 eq.) of piperidine. The mixture was stirred at room temperature. […] 2. In DBN Solution: To a solution of 12.81 mg of FM-Fmoc-PCA in 0.15 mL of DMF was added 0.15 mL (50 eq.) of 1,5-diazabicyclo[4,3,0]nonene-7 (DBN). The mixture was stirred at room temperature. […] 3. In DBU Solution: To a solution of 10.58 mg of FM-Fmoc-PCA in 0.15 mL of DMF was added 0.15 mL (50 eq.) of 1,8-diazabicyclo[5,4,0]undec-7-ene (DBU). The mixture was stirred at room temperature. […] 4. In TBD: To a solution of 18.95 mg of FM-Fmoc-PCA in 0.2 mL of DMF and 0.2 mL of pyridine was added 100 mg (20 eq.) of 1,5,9-triazabicyclo[4,4,0]dec-5-ene (TBD). The mixture was stirred at room temperature.

[9] = morpholine 50 eq., significant aminodibenzofulvene type adduct formed
[10] = piperidine 50 eq., significant aminodibenzofulvene type adduct formed

SMILES: C[Si](c1ccccc1)(c1ccccc1)C1(COC(=O)Nc2ccccc2)c2ccccc2-c2ccccc21 [DPMS, 9-Diphenyl(methyl)silyl-9-fluoroenylmethyl Carbanilate]
Time for Complete Deblocking ([2]; morpholine 100 eq.): 0.583 h | Time for Complete Scavenging of Dibenzofulvene ([2]; morpholine 100 eq.): 51 min | Time for Complete Deblocking ([2]; piperidine 100 eq.): 0.467 h | Time for Complete Scavenging of Dibenzofulvene ([2]; piperidine 100 eq.): 150 min | Time for Complete Deblocking ([2]; t-butylamine 100 eq.): 1.5 h | Time for Complete Deblocking by Fluoride Ion [3]: < 2 min | Time for Complete Deblocking by Trifluoroacetic Acid [4]: 18 h

SMILES: O=C(Nc1ccc(Cl)cc1)OCC1c2cc(Cl)ccc2Oc2ccc(Cl)cc21 [2,7-dichloro analog of Xmoc]
solubility compared with Fmoc derivatives [5]: greater solubility than Fmoc derivatives | deblocking by / stability to piperidine [6]: deblocked by piperidine as easily as the Fmoc group

SMILES: C[Si](C)(c1ccccc1)C1(COC(=O)Nc2ccccc2)c2ccccc2-c2ccccc21 [DMPS, 9-Dimethyl(phenyl)silyl-9-fluorenylmethyl Carbanilate]
Time for Complete Deblocking ([2]; morpholine 100 eq.): 0.783 h | Time for Complete Scavenging of Dibenzofulvene ([2]; morpholine 100 eq.): 60 min | Time for Complete Deblocking ([2]; piperidine 100 eq.): 0.667 h | Time for Complete Scavenging of Dibenzofulvene ([2]; piperidine 100 eq.): 220 min | Time for Complete Deblocking ([2]; t-butylamine 100 eq.): 3.5 h | Time for Complete Deblocking by Fluoride Ion [3]: < 2 min | Time for Complete Deblocking by Trifluoroacetic Acid [4]: 8 h

SMILES: CC(C)(C)c1ccc2c(c1)C(COC(=O)Nc1ccccc1)([Si](C)(C)C)c1cc(C(C)(C)C)ccc1-2 [DT-TMS, 2,7-Di-tert-butyl-9-trimethylsilyl-9-fluorenylmethyl Carbanilate]
Time for Complete Deblocking ([2]; morpholine 100 eq.): 16 h | Time for Complete Scavenging of Dibenzofulvene ([2]; morpholine 100 eq.): 1020 min | Time for Complete Deblocking ([2]; piperidine 100 eq.): 13 h | Time for Complete Scavenging of Dibenzofulvene ([2]; piperidine 100 eq.): 1080 min | Time for Complete Deblocking ([2]; t-butylamine 100 eq.): > 24 h | Time for Complete Deblocking by Fluoride Ion [3]: 10 min | Time for Complete Deblocking by Trifluoroacetic Acid [4]: 0.833 h

SMILES: CC(C)[Si](C(C)C)(C(C)C)C1(COC(=O)Nc2ccccc2)c2ccccc2-c2ccccc21 [derivative F]
cleavage by fluoride ion ([6]; inorganic base, fluoride ion): cleaved by the inorganic base, fluoride ion | deblocking by / stability to piperidine [6]: stable to piperidine

SMILES: CC(C)[Si](C(C)C)(C(C)C)C1(COC(=O)Nc2ccccc2)c2ccccc2-c2ccccc21 [TIPS, 9-Triisopropylsilyl-9-fluorenylmethyl Carbanilate]
reaction with amine bases (TLC) ([2]; any of the bases tested, 100 eq., 24 hours): no reaction was detected | Time for Complete Deblocking by Fluoride Ion [3]: 1080 min | Time for Complete Deblocking by Trifluoroacetic Acid [4]: 0.567 h

SMILES: C[Si](C)(C)C1(COC(=O)Nc2ccc(Cl)cc2)c2ccccc2-c2ccccc21 [Example 9-TMS-Fmoc]
solubility compared with ordinary Fmoc analogs ([5]; in non-polar solvents): enormously more soluble in non-polar solvents than ordinary Fmoc analogs | deblocking by / stability to piperidine [6]: deblocked by piperidine, although somewhat more slowly than the Fmoc group itself

The remaining lines, values ahead:

Time for Complete Deblocking ([1]; ethanolamine 50 eq.): 45 min | Time for Complete Scavenging of Dibenzofulvene Analogs ([1]; morpholine 50 eq.): 2.5 hr | Time for Complete Deblocking [1, 9]: 75 min | Time for Complete Scavenging of Dibenzofulvene Analogs ([1]; piperidine 50 eq.): 68 min | Time for Complete Deblocking [1, 10]: < 3 min | Time for Complete Deblocking ([1]; t-butylamine 50 eq.): 300 min
SMILES: O=C(Nc1ccc(Cl)cc1)OCC1c2ccccc2-c2ccccc21 [Fmoc-PCA, 9-fluorenylmethyl p-chlorocarbanilate, reference compound]

Time for Complete Deblocking ([1]; ethanolamine 50 eq.): 240 min | Time for Complete Scavenging of Dibenzofulvene Analogs ([1]; morpholine 50 eq.): 13 hr | Time for Complete Deblocking [1, 9]: 600 min | Time for Complete Scavenging of Dibenzofulvene Analogs ([1]; piperidine 50 eq.): 84 min | Time for Complete Deblocking [1, 10]: 12 min | Time for Complete Deblocking ([1]; t-butylamine 50 eq.): 600 min
SMILES: CC(C)(C)c1ccc2c(c1)C(COC(=O)Nc1ccc(Cl)cc1)c1cc(C(C)(C)C)ccc1-2 [DT-Fmoc-PCA, 2,7-Di-tert-butyl-9-Fluorenylmethyl p-Chlorocarbanilate]

time needed to complete the deblocking [7]: 3.5 h | Time for Complete Deblocking ([7]; TBD 50 eq., pyridine): 25 min | time for evidence for initiation of the deblocking [7]: 3.5 h
SMILES: O=C(Nc1ccc(Cl)cc1)OCC1c2ccccc2Oc2ccccc21 [Xmoc-PCA, 9-Xanthenylmethyl p-Chlorocarbanilate]

time for evidence for initiation of the deblocking [7]: 0.033 h
SMILES: O=C(Nc1ccc(Cl)cc1)OCC1c2cc(Cl)ccc2Oc2ccc(Cl)cc21 [DC-Xmoc-PCA, 2,7-Dichloro-9-xanthenylmethyl p-Chlorocarbanilate]

deblocking by / stability to piperidine [6]: stable to piperidine
SMILES: O=C(Nc1ccc(Cl)cc1)OCC1c2ccccc2Oc2ccccc21 [Xmoc]

time at which deblocking had begun ([8]; DBN 50 eq., DMF): ≤ 10 min | Time for Complete Deblocking ([8]; DBN 50 eq., DMF, still not complete): > 24 h | Time for Complete Deblocking ([8]; DBU 50 eq., DMF): 12 h | time at which deblocking had begun ([8]; DBU 50 eq., DMF): ≤ 10 min | start of deblocking ([8]; TBD 20 eq., DMF and pyridine): immediately | time for complete deblocking-scavenging reaction ([8]; TBD 20 eq., DMF and pyridine): 1 h | time at which first deblocking was detected ([8]; piperidine 100 eq., DMF): 12 h
SMILES: O=C(Nc1ccc(Cl)cc1)OCC1(CC2c3ccccc3-c3ccccc32)c2ccccc2-c2ccccc21 [FM-Fmoc-PCA, 9-(9'-Fluorenylmethyl)-9-fluorenylmethyl p-Chlorocarbanilate]

time needed to complete the deblocking [7]: 6 h | time for evidence for initiation of the deblocking [7]: 7 h
SMILES: O=C(Nc1ccc(Cl)cc1)OCC1c2ccccc2Cc2ccccc21 [DHAmoc-PCA, 3,10-Dihydro-9-anthracenylmethyl p-Chlorocarbanilate]
